Laboratory results as given in patent publication US12686690B2, “Macrocyclic urea orexin receptor agonists” (Merck Sharp & Dohme LLC, priority 2020, dated 2026).

Molecular target: T1, hOX2R (Homo sapiens, UniProt O43614)
T1 construct: expressed in transfected cells; host or cells: CHO cells (G418 selection)
T1 sequence (O43614 1-444): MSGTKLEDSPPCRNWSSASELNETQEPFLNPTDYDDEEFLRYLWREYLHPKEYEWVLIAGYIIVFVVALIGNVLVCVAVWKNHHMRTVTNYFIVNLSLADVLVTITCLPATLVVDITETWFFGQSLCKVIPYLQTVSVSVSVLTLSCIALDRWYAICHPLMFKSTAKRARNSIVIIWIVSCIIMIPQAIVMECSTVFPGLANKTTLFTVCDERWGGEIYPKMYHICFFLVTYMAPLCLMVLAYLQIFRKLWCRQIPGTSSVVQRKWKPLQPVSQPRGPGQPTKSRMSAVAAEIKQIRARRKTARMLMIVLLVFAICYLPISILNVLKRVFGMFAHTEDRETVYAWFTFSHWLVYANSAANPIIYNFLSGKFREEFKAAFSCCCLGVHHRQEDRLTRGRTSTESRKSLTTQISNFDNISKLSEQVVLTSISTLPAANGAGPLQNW
Assay: hOX2R IPone assay (orexin receptor agonism)
Format: cell-based
Conditions: IPone readout; for hOX2R_Ipone max %act: maximal activation; for EC50: orexin receptor agonist, read-out: hOX2R_IPone EC50

Structure (SMILES)	hOX2R_Ipone max %act	EC50
CCN1C(=O)NCCCOCCOc2nc(cn3ccnc23)-c2cccc(c2)[C@H]1C [Example 14, (12R)-13-ethyl-12-methyl-12,13,15,16,17,18, 20,21-octahydro-14H-6,23-(azeno)-11,7-(metheno)imidazo [2,1-f][1,4,7,16, 18]dioxatriaza-cyclohenicosin-14-one]	101%	9.7 nM
CCN1C(=O)NC2CN(CCCOc3nc(cn4ccnc34)-c3cccc(c3)[C@H]1C)CC2(F)F (mixture of isomers) [Example 213, (3R,E)-4-ethyl-7^4,7^4-difluoro-3-methyl-11-oxa-4,6-diaza-1(6,8)-imidazo[1,2-a]pyrazina-7(3,1)-pyrrolidina-2(1,3)-benzenacycloundecaphan-5-one]	101.8%	6.44 nM
CCN1C(=O)N[C@@H](CCC(F)(F)F)C/C=C\COc2nc(cn3ccnc23)-c2cccc(c2)[C@H]1C [Example 31, (1^7E,3R,7S,9Z)-4-ethyl-3-methyl-7-(3,3,3-trifluoropropyl)-12-oxa-4,6-diaza-1(6,8)-imidazo[1,2-a]pyrazina-2(1,3)-benzenacyclododecaphan-9-en-5-one]	100.5%	8 nM
CCN1C(=O)NCCOCCCOc2nc(cn3ccnc23)-c2cccc(c2)[C@H]1C [Example 17, (12R)-13-ethyl-12-methyl-12,13, 16,17,20,21-hexahydro-19H-6,23-(azeno)-11,7-(metheno) imidazo[1,2-o][1, 18,4,6,15]dioxa-triazacyclohenicosin-14(15H)-one]	99.6%	19.4 nM
CCN1C(=O)NC(C2CC(F)(F)C2)CCCCCOc2nc(cn3ccnc23)-c2cc(ncc2OC)[C@H]1C (stereo partly drawn) [Example 195, (3R,E)-7-(3,3-difluorocyclobutyl)-4-ethyl-25-methoxy-3-methyl-13-oxa-4,6-diaza-1(6,8)-imidazo[1,2-a]pyrazina-2(4,2)-pyridinacyclotri-decaphan-5-one]	101.4%	0.84 nM
CCN1C(=O)N[C@@H](CCC(F)(F)F)CCCCCOc2nc(nn3c(C)cnc23)-c2cc(ncc2OC)[C@H]1C [Example 124, (3R,7R,E)-4-ethyl-25-methoxy-17,3-dimethyl-7-(3,3,3-trifluoropropyl)-13-oxa-4,6-diaza-1(2,4)-imidazo[2,1-f][1,2,4]triazina-2(4,2)-pyridinacyclotridecaphan-5-one]	97.96%	3.99 nM
CCN1C(=O)NC(CCC(F)F)CCCCCOc2nc(cn3ccnc23)-c2cc(ncc2OC)[C@H]1C(F)(F)F (stereo partly drawn) [Example 208, (3S,E)-7-(3,3-difluoropropyl)-4-ethyl-25-methoxy-3-(trifluoromethyl)-13-oxa-4,6-diaza-1(6,8)-imidazo[1,2-a]pyrazina-2(4,2)-pyridinacyclotridecaphan-5-one]	101.8%	0.29 nM
CCN1C(=O)NC2CN(CCCCOc3nc(cn4ccnc34)-c3cc(ncc3OC)[C@H]1C)CC2C(F)(F)F (single isomer, unassigned) [Example 214]	102.9%	3.43 nM
CCN1C(=O)N[C@@H](CCC(F)(F)F)CCCCCOc2cc(nn3ccnc23)-c2cc(cnc2OC)[C@H]1C [Example 89, (12R,16R)-13-ethyl-8-methoxy-12-methyl-16-(3,3,3-trifluoropropyl)-12,13,16,17,18,19,20, 21-octahydro-6,23:11,7-di(metheno) imidazo[2,1-c][1,4,5,9,13,15]oxapentaaza-cyclohenicosin-14(15H)-one]	99.2%	6.4 nM
CCN1C(=O)NCc2nc(cs2)CCOc2nc(cn3ccnc23)-c2cccc(c2)[C@H]1C [Example 22, (R,27E,6^2Z)-10-ethyl-11-methyl-3-oxa-8,10-diaza-6(4,2)-thiazola-2(6,8)-imidazo[1,2-a]pyrazina-1(1,3)-benzenacycloundecaphan-9-one]	94.8%	82.6 nM
CCN1C(=O)N[C@@H](CCC(F)(F)F)CCCCCOc2cc(nn3cc(C)nc23)-c2cc(ncc2OC)[C@H]1C [Example 166, (3R,7R,E)-4-ethyl-25-methoxy-12,3-dimethyl-7-(3,3,3-trifluoropropyl)-13-oxa-4,6-diaza-1(6,8)-imidazo[1,2-b]pyridazina-2(4,2)-pyridinacyclotridecaphan-5-one]	102%	15.1 nM
CCN1C(=O)NC(C#N)CCCCCOc2nc(cn3ccnc23)-c2cc(ncc2OC)[C@H]1C (single isomer, unassigned) [Example 224]	99.26%	71.2 nM
CCN1C(=O)NC(CCC(F)F)CCCCCOc2nc(cn3ccnc23)-c2cc(ncc2C2CC2)[C@H]1C (stereo partly drawn) [Example 197, (3R,E)-25-cyclopropyl-7-(3,3-difluoropropyl)-4-ethyl-3-methyl-13-oxa-4,6-diaza-1(6,8)-imidazo[1,2-a]pyrazina-2(4,2)-pyridina-cyclotridecaphan-5-one]	105.4%	1.3 nM
CCN1C(=O)NC(CCC(F)F)CCCCCOc2cc(nn3ccnc23)-c2cc(ncc2F)[C@H]1C (stereo partly drawn) [Example 204, (3R,E)-7-(3,3-difluoropropyl)-4-ethyl-25-fluoro-3-methyl-13-oxa-4,6-diaza-1(6,8)-imidazo[1,2-b]pyridazina-2(4,2)-pyridina-cyclotridecaphan-5-one]	100.5%	2.11 nM
CCN1C(=O)N[C@@H](CCC(F)(F)F)CCCCCOc2cc(nn3c(C)cnc23)-c2cc(ncc2OC)[C@H]1C [Example 168, (3R,7R,E)-4-ethyl-25-methoxy-13,3-dimethyl-7-(3,3,3-trifluoropropyl)-13-oxa-4,6-diaza-1(6,8)-imidazo[1,2-b]pyridazina-2(4,2)-pyridinacyclotridecaphan-5-one]	99.31%	2.33 nM
CCN1C(=O)N[C@@H](CCC(F)(F)F)CCCCCOc2nc(cn3ncnc23)-c2ccnc(c2)[C@H]1C [Example 142, (3R,7R,E)-4-ethyl-3-methyl-7-(3,3,3-trifluoropropyl)-13-oxa-4,6-diaza-1(6,8)-[1,2,4]triazolo[1,5-a]pyrazina-2(4,2)-pyridinacyclotridecaphan-5-one]	100.3%	4.71 nM
CCN1C(=O)N[C@@H](CCC(F)(F)F)CCCCCOc2nc(nc3ccnn23)-c2cc(ncc2OC)[C@H]1C [Example 98, (11R,15R)-12-ethyl-7-methoxy-11-methyl-15-(3,3,3-trifluoropropyl)-11,12,15,16,17,18,19, 20-octahydro-5,22-(azeno)-10,6-(metheno)pyrazolo[1,5-c][1,3,5,10,13,15] oxapentaazacycloheni-cosin-13(14H)-one]	101.2%	8.6 nM

Results, then the molecule that gave them:

hOX2R_Ipone max %act	EC50	Structure (SMILES)
102.9%	9.6 nM	CCN1C(=O)NC(CC2(C(F)(F)F)CC2)CCCCCOc2nc(cn3ccnc23)-c2cc(ncc2OC)[C@H]1C (single isomer, unassigned) [Example 66A]
102.7%	3.5 nM	CCC(CC)CC1CCCCCOc2nc(cn3ccnc23)-c2cc(ncc2OC)[C@@H](C)N(CC)C(=O)N1 (single isomer, unassigned) [Example 64A]
102%	143 nM	CCCC1CCCCCOc2nc(cn3ccnc23)-c2cc(ncc2OC)[C@@H](C)N(CC)C(=O)N1 (single isomer, unassigned) [Example 54A]
100.9%	1.4 nM	CCOCC1CCCCCOc2nc(cn3ccnc23)-c2cc(ncc2OC)[C@@H](C)N(CC)C(=O)N1 (single isomer, unassigned) [Example 62B]
100.9%	3.3 nM	CCN1C(=O)N[C@@H](CCC(F)(F)F)CCCCCOc2nc(cn3ccnc23)-c2cc(ccn2)[C@H]1C [Example 113B, (12R,16R)-13-ethyl-12-methyl-16-(3,3,3-trifluoropropyl)-12,13,16,17,18,19,20,21-octahydro-6,23-(azeno)-11,7-(metheno)imidazo[2,1-c][1,4,8,13,15]oxatetraazacyclohenicosin-14(15H)-one]
99.8%	1.6 nM	CCC(CC)CC1CCCCCOc2nc(cn3ccnc23)-c2cc(ncc2OC)[C@@H](C)N(CC)C(=O)N1 (single isomer, unassigned) [Example 64B]
99.8%	1.1 nM	CCN1C(=O)NC(CC2(C(F)F)CC2)CCCCCOc2nc(cn3ccnc23)-c2cc(ncc2OC)[C@H]1C (single isomer, unassigned) [Example 70B]
100.3%	54.4 nM	CCN1C(=O)N[C@@H](CCC(F)(F)F)CCCCCOc2nc(cn3ccnc23)C2=NC=C(S2)C1C (single isomer, unassigned) [Example 94B]
100.6%	1.8 nM	CCN1C(=O)N[C@@H](CCC(F)(F)F)CCCCCOc2nc(cn3ccnc23)-c2nc(ncc2C)[C@H]1C [Example 93B, (12R,16R)-13-ethyl-8,12-dimethyl-16-(3,3,3-trifluoro-propyl)-12,13,16,17, 18,19,20,21-octa-hydro-6,23:11,7-di(azeno)imidazo[2,1-c][1,4,10,13,15]oxatet-raazacyclohenicosin-14(15H)-one]
100.5%	2.9 nM	CCN1C(=O)N[C@@H](CCC(F)(F)F)CCCCCOc2cc(cn3ccnc23)-c2cc(ncn2)C1C (single isomer, unassigned) [Example 96B]
